From patent US20180200233A1, “COMPOSITIONS FOR PREVENTING CANCERS ASSOCIATED WITH HUMAN PAPILLOMA VIRUSES” (Loma Linda University, priority 2015, published 2018)

Tests used:
[1] = system: caspase 3/7 activity in SiHa cells; assay: Caspase 3/7 activity assay in SiHa cells; type: cell-based, human; conditions: 100 μM myricetin or 50 μM spinacine 4 h, TRAIL 100 ng/ml + cycloheximide, 0-6 h
Description: FIGS. 4A-C are graphs showing that myricetin and spinacine (5) increased caspase 3/7 activity in SiHa cells following treatment with TRAIL and chemotherapy drugs. SiHa cells (2×10^4 cells per well) were seeded into a 96-well plate and allowed to incubate overnight, then pre-treated with 100 μM of myricetin or 50 μM of spinacine for 4 h. (FIG. 4A) TRAIL (100 ng/ml), along with cycloheximide (5 μg/ml), (FIG. 4B) cisplatin (50 μM), or (FIG. 4C) doxorubicin (2 μM) were added respectively. Caspase 3/7 activity was measured after 0, 1.5, 3, and 6 hours using the […] assay. Activity at 0 h of treatment was set at 100% for each group. […]
Activation of caspase 3/7 is an essential marker for both extrinsic and intrinsic apoptosis, and can be used to determine whether cell death occurs through the apoptotic pathway. […] To test this, caspase 3/7 activity was measured in SiHa cells following TRAIL, cisplatin and doxorubicin treatment in the presence or absence of myricetin or spinacine.
Cells were plated into 96-well plates at a density of 2×10^4 cells per well and incubated overnight. […] Caspase 3/7 activity was measured using the […] for caspase 3/7 activity (Promega, Fitchburg, Wis., USA) following the manufacturer's instructions. […] The resulting difference was expressed as a percentage of the caspase activity of the untreated cells.

SCC 84 (#84) cells = assay: MTT cell viability, HPV- HNSCC cell line #84 with doxorubicin; type: cell-based; conditions: 2 μM doxorubicin; small molecules 0-12.5 μM
Description: FIGS. 8A-B includes graphs showing myricetin and spinacine (5) re-sensitized HPV^+, but not HPV^−, HNSCC cell lines to treatment with doxorubicin. One HPV^− (FIG. 8A; #84) and one HPV^+ (FIG. 8B; #90) head and neck cancer cell line (2×10^4 cells per well) were seeded into 96-well plates and allowed to incubate overnight, then cells were pre-treated with myricetin or spinacine (0-12.5 μM) for 4 h. 2 μM of doxorubicin was added and cells were allowed to incubate overnight. Cell viability was measured by MTT assay, and the viability of cells untreated with small molecules was set at 100%. Experiments were performed in triplicate, and error bars indicate the standard deviation.
The results described above indicate that myricetin and spinacine sensitize HPV^+ HNSCC cells to TRAIL-induced apoptosis. To determine whether this sensitization also occurs in the context of chemotherapeutic agents, several HNSCC cell lines were tested for their responses to combination treatments.
The extracellular domain of human TRAIL was cloned into a pTriEx expression plasmid containing N-terminal Hisx6 tag. His-TRAIL was expressed in the E. coli BL-21 pLys strain and purified as previously described. […] All experiments were repeated at least three times (three biological replicates, carried out on different days), with each experimental group measured in triplicate within each of these individual experiments. […]

O=C(O)C1Cc2[nH]cnc2CN1 (stereo not shown) [Compound 5, 4,5,6,7-Tetrahydro-1H-imidazo(4,5-c)pyridine-6-carboxylic acid]
caspase 3/7 activity when combined with TRAIL (in words) [1]: increased significantly
response of HPV- HNSCC cell line #84 to doxorubicin (in words) (SCC 84 (#84) cells): resistant

O=c1c(O)c(-c2cc(O)c(O)c(O)c2)oc2cc(O)cc(O)c12 [Myricetin, reference compound]
caspase 3/7 activity when combined with TRAIL (in words) [1]: increased significantly
response of HPV- HNSCC cell line #84 to doxorubicin (in words) (SCC 84 (#84) cells): resistant
